Source: paper PMC10852989, “Combining cisplatin and a STING agonist into one molecule for metalloimmunotherapy of cancer” (National Science Review, 2024)
Like-named read-outs stand apart in the source and are kept apart here.

Tests used:
HK-2 cells = assay: 72 h MTT cytotoxicity, HK-2; type: cell-based
Experimental: (§1) Cytotoxicity. Tumor cells were cultured overnight after inoculation in RPMI-1640 medium or DMEM supplemented with 10% FBS. All cultures were maintained in an incubator in a highly humidified atmosphere of 95% air with 5% CO2 at 37 °C. Growth inhibition was measured with an MTT assay. Briefly, 2800–7000 cells per well in culture medium (100 μL) were plated in 96-well plates (Corning). The cells were treated in triplicate with different concentrations of complexes at 37 ℃ for 72 h. Stock solutions of CDDP and oxoplatin were prepared in PBS, while stock solutions of conjugates I and II and the ligand MSA-2 were prepared in DMSO. The stock solutions were diluted in complete medium (DMSO < 0.5%). An aliquot of MTT solution (40 μL, 2.5 mg·mL^–1) in PBS buffer was added to each well and incubated for 4 h. The supernatant was removed and DMSO (150 μL) was added to solubilize the formazan crystals. The amount of formazan was determined using a microplate reader at 570 nm after the plates were shaken for 30 min. The optical density (OD) was used to calculate the percentage of viable cells relative to untreated control values. Background readings for MTT incubated in cell-free medium were subtracted from each value before calculation. […] The mean IC50 values were calculated using data from three replicates.

Caov3 cells = assay: 72 h MTT cytotoxicity, Caov3; type: cell-based, human
Experimental: as §1

PANC-1 cells [1] = assay: 72 h MTT cytotoxicity, PANC-1; type: cell-based, human
Experimental: as §1

BxPC3 cells = assay: 72 h MTT cytotoxicity, BxPC3; type: cell-based, human
Experimental: as §1

Pan02 cells = assay: 72 h MTT cytotoxicity, Pan02; type: cell-based, mouse
Experimental: as §1

MCF-7 cells = assay: 72 h MTT cytotoxicity, MCF-7; type: cell-based, human
Experimental: as §1

[2] = tested on: cancer cell lines (MCF-7, Caov3, PANC-1, BxPC3, Pan02); assay: 72 h MTT cytotoxicity, panel of cancer cell lines; type: cell-based; conditions: read-out: IC50 in these cancer cell lines
Experimental: as §1

STING pathway in BMDCs = assay: IFN-β and IL-6 ELISA in supernatants of BMDCs treated with complexes; type: cell-based, mouse; conditions: 18 h, ELISA, 15 μM
Experimental: (§2) ELISA. Bone marrow-derived dendritic cells (BMDCs) were prepared according to the following method. Briefly, femurs and tibias were removed from 4-6 week-old C57BL/6 mice, and the bone marrow cells were isolated. The bone marrow cells were incubated in T cell medium [RPMI-1640 medium (with GlutaMAX), supplemented with 10% FBS, 1% HEPES, 1% NEAA, 1% sodium pyruvate, and 0.1% βME] containing 20 ng/mL GM-CSF for 6 days after erythrocyte lysis, during which time half of the medium was replaced with fresh T cell medium once and the cytokines were supplemented. Then, the BMDCs were harvested on day 7 for further study.
(§3) BMDCs were cultured with 50% CM plus 50% fresh medium for 18 h. In addition, BMDCs were cultured with fresh medium containing different complexes or mixtures (15 μM CDDP and I, a mixture of I and 8 equiv. AsA, and equal AsA). Then, all the BMDC supernatant was collected and centrifuged for subsequent cytokine analysis using ELISA kits, which were performed according to the manufacturer’s instructions.

[3] = tested on: BMDCs cultured with Pan02 cell CM; assay: IFN-β ELISA of BMDCs incubated with conditioned medium of drug-treated Pan02 cells; type: cell-based, mouse; conditions: Pan02 treated 48 h at 5 μM (Pt-E-I 20 μM); BMDCs 50% CM, 18 h
Experimental: as §2
Pan02 tumor cells were treated with various drugs at a concentration of 5 μM for 48 h, and then the drug-pretreated tumor cell supernatant was obtained by centrifugation at a speed of 12000 rpm/min for 5 min and used as conditioned media (CM) subsequently.
as §3

PANC-1 cells [4] = assay: cellular uptake of Pt by ICP-MS, PANC-1; type: cell-based, human; conditions: PANC-1 cells, 6 h incubation, ICP-MS
Experimental: Cellular uptake. All incubations were carried out in the dark. After the designated incubation period, the medium was removed, and the cells were harvested with trypsin and rinsed twice with PBS (1×, 20 mM, pH 7.4), followed by digestion and ICP-MS.
Cancer cells were seeded in a 6-well plate at a density of 5×10^5 cells per well. After incubation for 24 h, the cells were treated with each complex for 6 h.
Cancer cells preincubated with metabolic inhibitor (MIs) were also evaluated. These cells were preincubated with 2-deoxy-D-glucose and oligomycin (50 mM and 5 μM, respectively, 1 h) or NH4Cl (50 mM, 1 h) at 37 ℃ followed by incubation with DMEM containing CDDP, I or II at 37 ℃ for 6 h.
Digestion. Cell pellets were collected by centrifugation and then digested with nitric acid (100 µL) for 2 h at 95 °C, followed by the addition of H2O2 (50 µL) at 95 °C for 0.5 h. HCl (100 µL) was added and kept at 95 °C until the total volume was less than 20 μL. Water was then added to dilute the solution to 1 mL, and the final Pt content was determined by ICP-MS.

Pan02 tumors = assay: in vivo antitumor activity, C57BL/6 mice bearing Pan02 tumors; set-up: species or system mouse; conditions: C57BL/6 mice, Pan02 tumors, 10.0 μmol/kg every 2 days for 16 days, intravenous
Experimental: In vivo antitumor activity. Female C57BL/6 mice (6–8 weeks old) were subcutaneously implanted with pan02 cells (2 × 10^6) in the right flank. Once the tumor volume reached approximately 60 mm^3, the mice were assigned to 4 groups at random (n = 5–8) and received treatment with PBS, CDDP (10.0 μmol/kg), I (10.0 μmol/kg), or a mixture of CDDP (10.0 μmol/kg) and MSA-2 (10.0 μmol/kg). The mice received 9 treatments. Changes in body weight and tumor volume were recorded. All the experimental procedures utilizing mice were performed in accordance with the Guidelines for Care and Use of Laboratory Animals of Nanjing University and experiments were approved by the Institutional Animal Care and Use Committee of Nanjing University (IACUC-2101001, SL-019-00).

[5] = H&E histology of major organs after treatment; type: in vivo, mouse; conditions: C57BL/6 mice after treatment, 10.0 μmol/kg
Experimental: Hematoxylin and eosin staining. Tissue samples were subjected to histopathological examination using hematoxylin and eosin (H&E) staining. Mouse organs (heart, liver, spleen, lungs and kidneys) were collected in 4% paraformaldehyde for proper fixation and then embedded in paraffin using a tissue embedding machine. Sections were prepared in an orderly manner by dewaxing, dehydration, and H&E staining. The tissue morphology was observed under a fluorescence microscope (Olympus BX41, Japan).

[6] = octanol-water partition coefficient, shake-flask, ICP-MS; type: physicochemical; conditions: n-octanol / phosphate buffer 10 mM pH 7.4, room temperature
Experimental: Lipid-water partition coefficient. The shake-flask method was used to measure the partition coefficients of CDDP, I and II. Briefly, a mixture containing equal volumes of n-octanol and phosphate buffer (10 mM, pH 7.4) was shaken on a mechanical shaker at room temperature for 24 h. Complexes (10 mM) in phosphate buffer (presaturated with n-octanol) were mixed with an equal volume of n-octanol (presaturated with phosphate buffer), and the mixture was shaken for 24 h at room temperature. Centrifugation was carried out at 2500 rpm for 30 min to separate the two phases. The aqueous layer was carefully separated, and the Pt content in the initial and final aqueous phases was analyzed by inductively coupled plasma mass spectrometry (ICP-MS). The log PO/W was measured using the following equation: log PO/W = log [(Ptinitial ‒ Ptfinal)/Ptfinal].

[7] = reduction by ascorbic acid (AsA) followed by 1H-/195Pt-NMR; type: physicochemical; conditions: 20 mM, 8 equiv. AsA, 5:1 d6-DMSO:D2O, 37 °C, dark
Experimental: Reduction of I and II. Samples were prepared by reacting I or II (20 mM) with 8 equiv. AsA in 5:1 d6-DMSO:D2O solutions. The time course of the reaction was monitored by ^1H-NMR and ^195Pt-NMR after incubation of the samples were incubated at 37 °C for 0, 3, 6, 12, 24, 36, 48, 60, 72, 84, 96, or 120 h in the dark.

Structure (SMILES) | IFN-β secretion by BMDCs incubated with treated Pan02 cell CM [3] | IC50 (HK-2 cells; human normal kidney cell line) | IC50 (Caov3 cells) | IC50 (PANC-1 cells [1]) | IC50 (BxPC3 cells) | IC50 (Pan02 cells) | IC50 (MCF-7 cells) | cellular Pt content (PANC-1 cells [4]) | further results
COc1cc2cc(C(=O)CCC(=O)O)sc2cc1OC [MSA-2] | moderate |  |  |  |  |  |  |  | IC50 (HK-2 cells; HK-2, human normal kidney cell line): > 50 µM; IC50 (Caov3 cells; Homo sapiens, Caov-3): > 50 µM; IC50 (PANC-1 cells [1]; Homo sapiens, PANC-1): > 50 µM; IC50 (BxPC3 cells; Homo sapiens, BXPC-3): > 50 µM; IC50 (Pan02 cells; Mus musculus, Pan02): > 50 µM; IC50 (MCF-7 cells; Homo sapiens, MCF7): > 50 µM; IC50 [2]: > 50 µM; IFN-β secretion by BMDCs (STING pathway in BMDCs): robust; IL-6 secretion by BMDCs (STING pathway in BMDCs): robust
N.N.[Cl-].[Cl-].[OH-].[OH-].[Pt+4] [Oxoplatin, Cis-diamminedichloro-trans-dihydroxyplatinum] |  | 38.7 ± 4.1 µM | > 50 µM | > 50 µM | > 50 µM | > 50 µM | 8.2 ± 0.7 µM |  | 
[NH2][Pt]([NH2])([Cl])[Cl] [CDDP, cisplatin] | slightly increased | 8.2 ± 0.5 µM | 26.8 ± 2.2 µM | 11.1 ± 1.3 µM | 1.6 ± 0.1 µM | 8.3 ± 0.6 µM | 5.4 ± 0.3 µM | 1.7 ng Pt/mg protein | tumor volume (Pan02 tumors): 200.2 ± 20.6 mm^3; histological findings in major organs [5]: substantial blood cell stasis in the liver blood sinuses and thickening of the alveolar wall as well as large infiltrates of inflammatory cells in the trachea and bronchus
COc1cc2cc(C(=O)CCC(=O)[O][Pt]([NH2])([NH2])([Cl])([Cl])[O]C(=O)CCC(=O)c3cc4cc(OC)c(OC)cc4s3)sc2cc1OC [conjugate II] |  | 3.6 ± 1.2 µM | 5.3 ± 0.4 µM | 6.9 ± 0.9 µM | 4.9 ± 0.8 µM | 8.4 ± 0.7 µM | > 64 µM | 2.3 ng Pt/mg protein | octanol-water partition coefficient (logPo/w) [6]: 2.1; time at which reduction by AsA finished [7]: 120 h
